Five compounds from DBAASP can be followed below.

Some test systems named below: Salmonella typhimurium; Pseudomonas aeruginosa; Escherichia coli UB1005; Staphylococcus aureus; Escherichia coli 55B5; Serratia rubidaea X01; Escherichia coli D31; Escherichia coli BL21AI; Shigella flexneri CP87; Escherichia coli DC2; Escherichia coli K-12; Spiroplasma citri R8A2.
Holding throughout (experiment): ≥ marks a high value that may be exact or a test limit, other limits are often not marked, values filed in µg/mL are converted to µM
Assay [1] deals with Staphylococcus carnosus KHS.
In assay [2] the test system is Rhodococcus rhodochrous X15.
Assay [3] has as its system Enterococcus faecalis 981.
Assay [4] has as its system Psychrobacter faecalis X29.
Assay [5] relates to Staphylococcus aureus ATCC 25923.
Assay [6] has as its system Bacillus licheniformis X39.
For assay [7], the system named is Escherichia coli ATCC 25922.
The test system of assay [8] is Staphylococcus aureus USA 300.
Assay [9] has as its system Agrobacterium tumefaciens DSM 3129.
Assay [10] relates to Bacillus subtilis DSM 347.
Assay [11] has as its system Escherichia coli DSM 10233.
In assay [12] the test system is Micrococcus luteus ATCC 10240.
Assay [13] deals with Salmonella enterica subsp. enterica serovar Newport.
The test system of assay [14] is Escherichia coli NCTC 9001.
The subject of assay [15] is Klebsiella pneumoniae DSM 681.
The test system of assay [16] is Escherichia coli DSM 1103.
In assay [17] the test system is Klebsiella pneumoniae K6 ATCC 700603.
Assay [18] concerns Salmonella enterica subsp. enterica serovar Typhimurium ATCC 700408.
Assay [19] deals with Pseudomonas syringae pv. tomato NCPPB 1106.
Assay [20] has as its system Clavibacter michiganensis subsp. insidiosus NCPPB 1109.
For assay [21], the system named is Bacillus megaterium QMB 1551.
For assay [22], the system named is Sinorhizobium meliloti ZB314.
Assay [23] concerns Salmonella typhimurium ATCC 23565.
Assay [24] deals with Brenneria salicis NCPPB 2530.
Assay [25] deals with Acholeplasma laidlawii A-EF22.
Assay [26] concerns Staphylococcus aureus 930918-3.
Assay [27] has as its system Staphylococcus aureus ATCC 33591.

The structures appear in SMILES notation. Values after ≈ are worked out from the molar mass of the structure shown. Values joined by “and” are separate entries in the source; they are usually repeats but may differ in a detail not shown here. Equal values may be shown once.

Turning to `CC[C@H](C)[C@H](NC(=O)[C@H](C)N)C(=O)N[C@@H](Cc1cnc[nH]1)C(=O)N[C@@H](CC(N)=O)C(=O)N[C@@H](CC(C)C)C(=O)N[C@@H](C)C(=O)N[C@@H](Cc1cnc[nH]1)C(=O)N[C@@H](CCCCN)C(=O)N[C@@H](CC(C)C)C(=O)N[C@@H](CC(C)C)C(=O)N[C@@H](CCCCN)C(=O)N[C@@H](CCCCN)C(=O)N[C@@H](CC(C)C)C(=O)N[C@H](C(=O)N[C@@H](CCCN=C(N)N)C(=O)N[C@@H](C)C(=O)N[C@H](C(=O)N[C@@H](CCCCN)C(=O)N[C@@H](CCCCN)C(=O)N[C@@H](CC(C)C)C(=O)N[C@@H](C)C(=O)N[C@@H](CC(N)=O)C(=O)O)C(C)C)[C@@H](C)O` [AIHNLAHKLLKKLTRAVKKLAN], the MIC in the assay on Salmonella typhimurium was 4.8 µM (≈ 11.9 µg/mL); against Pseudomonas aeruginosa, 3 µM (≈ 7.44 µg/mL); with Escherichia coli UB1005, 2.1 µM (≈ 5.21 µg/mL); against Staphylococcus aureus it was 55 µM (≈ 136 µg/mL); with Escherichia coli 55B5, 1.8 µM (≈ 4.47 µg/mL).
Consider `CC[C@H](C)[C@H](NC(=O)[C@H](CC(C)C)NC(=O)[C@@H](NC(=O)[C@@H]1CCCN1C(=O)[C@@H](NC(=O)[C@@H](NC(=O)[C@H](CC(N)=O)NC(=O)[C@H](CO)NC(=O)[C@H](C)NC(=O)[C@@H](NC(=O)[C@H](CC(N)=O)NC(=O)[C@H](CC(C)C)NC(=O)[C@H](CC(C)C)NC(=O)[C@@H](NC(=O)[C@H](CO)NC(=O)[C@H](CC(C)C)NC(=O)[C@@H](N)Cc1ccccc1)[C@@H](C)O)C(C)C)C(C)C)C(C)C)[C@@H](C)O)C(=O)N[C@H]1CSSC[C@@H](C(=O)O)NC(=O)[C@H](CCCCN)NC(=O)[C@H](CCCCN)NC(=O)[C@H]([C@@H](C)O)NC(=O)[C@H]([C@@H](C)CC)NC(=O)[C@H](CCCCN)NC1=O` [FLSTLLNVASNVVPTLICKITKKC], for which the MIC was 19 µM (≈ 49.5 µg/mL) in assay [1]; 2.3 µM (≈ 5.99 µg/mL) in assay [2]; ≥ 75 µM in assay [3]; 4.5 µM (≈ 11.7 µg/mL) in assay [4]; 19 µM (≈ 49.5 µg/mL) in assay [5]; 9 µM (≈ 23.4 µg/mL) against Serratia rubidaea X01. For the same compound, the MIC was found to be 9 µM (≈ 23.4 µg/mL) in assay [6] and 150 µM (≈ 391 µg/mL) in assay [7].
With `CC[C@H](C)[C@H](NC(=O)[C@H](CCCNC(=N)N)NC(=O)[C@@H]1CCCN1C(=O)[C@H](Cc1cnc[nH]1)NC(=O)[C@@H]1CCCN1C(=O)[C@@H]1CCCN1C(=O)[C@H](CCCNC(=N)N)NC(=O)[C@@H]1CCCN1C(=O)[C@H](CCC(N)=O)NC(=O)[C@@H]1CCCN1C(=O)[C@@H](NC(=O)[C@H](Cc1ccc(O)cc1)NC(=O)[C@@H](NC(=O)[C@@H]1CCCN1C(=O)[C@H](CCCNC(=N)N)NC(=O)[C@H](CC(N)=O)NC(=O)[C@H](CC(N)=O)NC(=O)CN)C(C)C)[C@@H](C)CC)C(=O)O` [GNNRPVYIPQPRPPHPRI], the MIC was ≥ 100 µM in assay [8]; 30.4 µM (≈ 64 µg/mL) against Escherichia coli D31; 0.0949 µM (≈ 0.2 µg/mL) in assay [9]; ≥ 59.3 µM in assay [10]; 0.465 µM (≈ 0.98 µg/mL) against Escherichia coli BL21AI; 0.925 µM (≈ 1.95 µg/mL) in assay [11]. Besides, the MIC came to 14.8 µM (≈ 31.3 µg/mL) in assay [12]; 0.0474 µM (≈ 0.0999 µg/mL) against Shigella flexneri CP87; 0.0949 µM (≈ 0.2 µg/mL) in assay [13]; 0.0474 µM (≈ 0.0999 µg/mL) in assay [14]; 1.85 µM (≈ 3.91 µg/mL) with Escherichia coli DC2; 7.41 µM (≈ 15.6 µg/mL) in assay [15]. The MIC in [16] is 0.925 µM (≈ 1.95 µg/mL); in assay [17], 30.4 µM (≈ 64 µg/mL); in assay [18], 0.949 µM (≈ 2 µg/mL); in [19], 0.0949 µM (≈ 0.2 µg/mL); in [20], 23.7 µM (≈ 50 µg/mL); in assay [21], ≥ 71.1 µM. Further, the minimum inhibitory concentration (MIC) was ≥ 100 µM in the assay on Escherichia coli K-12, 0.0474 µM (≈ 0.0999 µg/mL) in [22], 0.0474 µM (≈ 0.0999 µg/mL) in assay [23] and 0.0095 µM (≈ 0.02 µg/mL) in [24].
`CC(C)C[C@H](NC(=O)[C@H](CC(C)C)NC(=O)[C@H](CCCCN)NC(=O)[C@H](CC(C)C)NC(=O)[C@H](CC(C)C)NC(=O)[C@H](CC(C)C)NC(=O)[C@H](CCCCN)NC(=O)[C@@H](N)CC(C)C)C(=O)N[C@@H](CCCCN)C(=O)O` [LKLLLKLLK]: the MIC (against Spiroplasma citri R8A2; in [25]) was ≥ 100 µM each time.
Take `CC[C@H](C)[C@H](NC(=O)[C@H](CCCCN)NC(=O)[C@H](CCCCN)NC(=O)[C@H](CC(C)C)NC(=O)[C@H](CCCCN)NC(=O)[C@H](CCC(=O)O)NC(=O)[C@H](CCCCN)NC(=O)[C@@H](NC(=O)[C@H](CCCCN)NC(=O)[C@H](CC(N)=O)NC(=O)[C@H](CCCN=C(N)N)NC(=O)[C@H](Cc1ccccc1)NC(=O)[C@H](CCCCN)NC(=O)[C@@H](N)CCCN=C(N)N)[C@@H](C)CC)C(=O)NCC(=O)O` [RKFRNKIKEKLKKIG]: the MIC is 0.95 µM and 1.17 µM in assay [26]; ≥ 130 µM in assay [27].
